Assay results: patent US7947673B2, “Method of scintigraphy” (Novartis AG, priority 2005, dated 2011)

How the values were obtained:
[1] = Determination of the affinity constant for gallium by potentiometric measurements; format: physicochemical; settings: ionic strength 0.1 M KCl, temperature 25° C., in water
Text: Determination of the affinity constant of 4-[3,5-bis(2-hydroxyphenyl)-[1,2,4]triazol-1-yl]benzoic acid for gallium
(§1) Chem. 2004, pp 4177-4192. Considering the affinity constants of 4-[3,5-bis(2-hydroxyphenyl)-[1,2,4]triazol-1-yl]benzoic acid for other metal ions according to Steinhauser et al., Eur. J. Inorg.

[2] = Ranking of affinity constants for metal ions; format: physicochemical; settings: other metal ion constants according to Steinhauser et al., Eur. J. Inorg. Chem. 2004
Text: as §1

For `O=C(O)c1ccc(-n2nc(-c3ccccc3O)nc2-c2ccccc2O)cc1` [4-[3,5-bis(2-hydroxyphenyl)-[1,2,4]triazol-1-yl]benzoic acid], the “affinity constant for Gallium, log β120” value [1] was 33.8(1) and the “ranking according to affinity constants for metal ions” value [2] was “Fe(III) (highest affinity)>Ga(III)>Al(III)>>Cu(II)>>Zn(II)>>Mg(II)>Ca(II)”.
